# From patent publication US9345742B2, “Aminostatin derivatives for the treatment of arthrosis” (MERCK PATENT GMBH, priority 2011, dated 2016)
# Tests used:
# [1] = Stability in bovine synovial fluid; type: in vitro ADME; settings: 1 μM, 48 h at 37° C.
# Method: In order to check the stability of individual compounds, a pool of four different bovine synovial fluids is mixed. To this end, about 1 ml per SF is used. The mixture is prepared directly in a 5 ml glass vessel. The SFs are mixed thoroughly, but carefully. No air bubbles or foam should form. To this end, a vortex unit is used at the lowest speed. The compounds to be tested are tested in an initial concentration (unless required otherwise) of 1 μM. After addition of the substance, the batch is again mixed thoroughly and carefully. For visual monitoring, all SF batches are photographed, and the pictures are filed in the eLabBio file for the corresponding experiment. […] The batches are incubated in the incubator for 48 h at 37° C. and 7.5% CO2.
# The sampling is carried out after the pre-agreed times (unless required otherwise, see below). 200 μl of the SF are removed from the mixture per time and transferred directly into a 0.5 ml “low-binding” Eppendorf vessel. “Low-binding” Eppendorf vessels are used in order to minimise interaction of the substances with the plastic of the vessels. 200 μl of acetonitrile have already been introduced into the Eppendorf vessel, so that a 1+1 mixture of the SF forms thereafter. This simplifies the subsequent analysis, but precipitation of protein may occur immediately after addition of the SF. This should be noted on the protocol. The 0 h sample is taken immediately after addition of the substance. This corresponds to the 100% value in the stability calculation. Ideally, the concentration employed should be retrieved here. The samples can be frozen at −20° C. • 0 h • 6 h • 24 h • 48 h
# The negative control used is SF without substance. The positive control used is SF with 1 μM of substance. This corresponds to the 0 h value and thus 100% stability.
# The concentrations measured (ng/ml) are plotted against the time in a graph (GraphPad Prism®). The percentage stability of the substance is determined here. The 100% value used is the initial value in the SF at time 0 h. The data are stored in eLabBio under the respective experiment number and reported in the MSR database (as percent stability after the corresponding incubation times).
# recombinant human renin = recombinant human renin (Homo sapiens (Human), UniProt P00797); assay: In-vitro fluorescence assay for identification of renin-inhibitory activity; type: biochemical; settings: recombinant human renin 10 nM, pH 7.2; read-out: Renin selectivity IC50
# Sequence of recombinant human renin (P00797 67-406): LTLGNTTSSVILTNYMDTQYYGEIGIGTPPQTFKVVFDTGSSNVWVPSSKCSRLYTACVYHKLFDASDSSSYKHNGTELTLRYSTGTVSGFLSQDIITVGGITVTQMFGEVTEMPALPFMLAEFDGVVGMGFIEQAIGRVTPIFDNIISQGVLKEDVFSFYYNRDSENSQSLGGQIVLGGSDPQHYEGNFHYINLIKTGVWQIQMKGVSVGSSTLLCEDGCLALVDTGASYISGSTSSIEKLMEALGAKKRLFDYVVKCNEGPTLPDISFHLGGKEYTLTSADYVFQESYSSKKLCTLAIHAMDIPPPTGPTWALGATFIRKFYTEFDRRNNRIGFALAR
# Outline: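 Recombinant human renin (10 nM) pre-incubated 15 min at RT with serially diluted compound in 50 mM Mops pH 7.2, 1.5% DMSO, 0.1% Igepal, 0.5% BSA; Edans/Dabcyl FRET peptide (5 µM final) added, 60 min at 37 °C; cleavage read as fluorescence increase (ex 340/em 495 nm) against no-compound wells.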
structure (smiles),measurement,setting,value
"CCC(CC)NC(=O)[C@@H](NC(=O)C[C@H](N)[C@H](Cc1ccccc1)NC(=O)[C@@H](NC(=O)[C@H](CC(C)C)NC(=O)CC(C)C)C(C)C)[C@@H](C)CC [Compound 39, N-[(1S,2S)-1-(1-Ethylpropylcarbamoyl)-2-methylbutyl]-(S)-3-(S)-amino-4-{(S)-3-methyl-2-[(S)-4-methyl-2-(3-methylbutyryl-amino)pentanoylamino]butyrylamino}-5-phenylpentanamide]",Stability in synovial fluid,[1],stable
same,IC50,recombinant human renin,> 30 µM
